Measured values taken from patent publication EP4703354A1, “COMPOUND AS CCR6 ANTAGONIST, AND PHARMACEUTICAL COMPOSITION AND USE THEREOF” (Wuhan Createrna Science and Technology Co.,Ltd., priority 2023, dated 2024).

Tests used:
human CXCR2 = molecular target: T1, human CXCR2 (Homo sapiens, UniProt P25025); assay: human CXCR2 calcium flux activity (FLIPR, HEK293 cells stably expressing human CXCR2, IL-8 stimulation); assay type: cell-based; settings: HEK293 cells stably expressing human CXCR2, EC80 human IL-8; read-out: CXCR2 inhibitory activity, IC50
T1 construct: expressed in transfected cells; host or cells: HEK293
T1 sequence (P25025 1-360): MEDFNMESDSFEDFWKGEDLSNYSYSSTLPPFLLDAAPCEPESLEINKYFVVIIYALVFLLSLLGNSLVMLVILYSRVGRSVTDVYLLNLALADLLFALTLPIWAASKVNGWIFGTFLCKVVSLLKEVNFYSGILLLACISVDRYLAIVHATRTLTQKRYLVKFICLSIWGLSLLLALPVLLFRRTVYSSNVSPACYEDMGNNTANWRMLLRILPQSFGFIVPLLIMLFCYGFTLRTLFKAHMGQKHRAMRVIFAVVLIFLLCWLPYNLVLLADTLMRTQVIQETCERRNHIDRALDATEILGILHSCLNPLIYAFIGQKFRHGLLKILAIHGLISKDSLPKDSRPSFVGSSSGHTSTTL
Procedure: The activity of the compounds was evaluated using HEK293 cells stably expressing human CXCR2 via the FLIPR platform. A 384-well black cell culture plate (Greiner, 781946) was used, with a seeding density of 20,000 cells/well, and incubated overnight at 37°C in a 5% CO2 incubator. The culture medium in the cell plate wells was removed, and 20 µL of Fluo-4 Direct™ Calcium Assay Buffer (Invitrogen, F10471, Component C), 20 µL of 2× Fluo-4 Direct™ Calcium Assay Reagent (Invitrogen, F10471, Component A) working solution, and 10 µL of 6× test compound working solution were sequentially added to each well. The cell plate was incubated in a 37 °C, 5% CO2 incubator for 50 min, followed by a 10 min incubation at room temperature. Additionally, a 6×EC80 human IL-8 (Sigma, SRP3311) working solution was prepared. After the incubation was completed, 10 µL/well of the 6×EC80 human IL-8 working solution was transferred to the corresponding cell wells using a FLIPR instrument, and the fluorescence signal changes at an excitation wavelength of 494 nm and an emission wavelength of 516 nm were recorded over 130 s. The difference between the maximum fluorescence signal (RFUMax) and the minimum fluorescence signal (RFUMin) was used as the output signal. The compound inhibition rate and the log value of the compound concentration were calculated, and a four-parameter fitting analysis was performed using GraphPad Prism 8 software to obtain the IC50 value of the test compound. Table 1. Inhibitory activity data of compounds against CCR6 and CXCR2

[1] = in vitro liver microsome metabolic stability, rat; assay type: in vitro ADME; settings: Rat liver microsomes, 37°C
How it was run: (§1)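 Test compound at 1 µM final (100 µM working solution diluted 1:100) incubated at 37°C with liver microsomes in pH 7.4 phosphate buffer with NADP/G6P/G6PDH/MgCl2 regenerating system; sampled 0–30 min, LC-MS/MS vs internal standard. T1/2 = 0.693/k from remaining-fraction decay.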

[2] = in vitro liver microsome metabolic stability, beagle dog; assay type: in vitro ADME; settings: Beagle dog liver microsomes, 37°C
How it was run: as §1

[3] = in vitro liver microsome metabolic stability, human; assay type: in vitro ADME; settings: Human liver microsomes, 37°C
How it was run: as §1

SMILES | IC50 (human CXCR2) | Liver microsome T1-2 (min) Rat [1] | Liver microsome T1-2 (min) Beagle dog [2] | Liver microsome T1-2 (min) Human [3]
CN(C)C(=O)c1nccc(Nc2c(N[C@@H](c3cccc(CF)n3)C3(C)CCCC3)c(=O)c2=O)c1O [compound 108, (R)-4-((2-(((6-(fluoromethyl)pyridin-2-yl)(1-methylcyclopentyl)methyl)amino)-3,4-dioxocyclobut-1-en-1-yl)amino)-3-hydroxy-N,N-dimethylpicolinamide] | 740 nM | 124.28 min | 63.57 min | 458.54 min
CN(C)C(=O)c1nccc(Nc2c(N[C@@H](C#CC3CCC3)[C@]3(C)CC(F)(F)CO3)c(=O)c2=O)c1O (single isomer, unassigned) [110A] | 297 nM | 292.82 min | 358.15 min | 641.85 min
Cc1cccnc1[C@H](Nc1c(Nc2ccc(Cl)c(C(=O)N(C)C)c2O)c(=O)c1=O)C1(C)CCCC1 [compound 063, (R)-6-chloro-2-hydroxy-N,N-dimethyl-3-((2-(((1-methylcyclopentyl)(3-methylpyridin-2-yl)methyl)amino)-3,4-dioxocyclobut-1-en-1-yl)amino)benzamide] | 15300 nM | 20.71 min | 202.25 min | 296.47 min
Cc1cc(F)cnc1[C@H](Nc1c(Nc2ccnc(C(=O)N(C)C)c2O)c(=O)c1=O)[C@]1(C)CC(F)(F)CO1 [093A, 4-((2-(((S)-((S)-4,4-difluoro-2-methyltetrahydrofuran-2-yl)(5-fluoro-3-methylpyridin-2-yl)methyl)amino)-3,4-dioxocyclobut-1-en-1-yl)amino)-3-hydroxy-N,N-dimethylpicolinamide] | > 100000 nM | 110.15 min | 104.27 min | 359.51 min
CC#C[C@H](Nc1c(Nc2ccc(Cl)c(C(=O)N(C)C)c2O)c(=O)c1=O)C1(C)CCCC1 [compound 114, (R)-6-chloro-2-hydroxy-N, N-dimethyl-3-((2-((1-(1-methylcyclopentyl)but-2-yn-1-yl)amino)-3,4-dioxocyclobut-1-en-1-yl)amino)benzamide] | 1450 nM | 120.25 min | 489.6 min | 392.83 min
CN(C)C(=O)c1nccc(Nc2c(N[C@@H](c3ncc(F)cc3F)C3(C)CCCC3)c(=O)c2=O)c1O [compound 009, (R)-4-((2-(((3,5-difluoropyridin-2-yl)(1-methylcyclopentyl)methyl)amino)-3,4-dioxocyclobut-1-en-1-yl)amino)-3-hydroxy-N,N-dimethylpicolinamide] | 2430 nM | 62.30 min | 89.42 min | 225.37 min
CN(C)C(=O)c1nccc(Nc2c(N[C@@H](c3ccc(F)cn3)C3(C)CCCC3)c(=O)c2=O)c1O [compound 005, (R)-4-((2-(((5-fluoropyridin-2-yl)(1-methylcyclopentyl)methyl)amino)-3,4-dioxocyclobut-1-en-1-yl)amino)-3-hydroxy-N,N-dimethylpicolinamide] | 1250 nM | 101.29 min | 254.48 min | 431.17 min
CN(C)C(=O)c1nccc(Nc2c(N[C@@H](C#CC3CC3)C3(C)CCCC3)c(=O)c2=O)c1O [compound 115, (R)-4-((2-((3-cyclopropyl-1-(1-methylcyclopentyl)prop-2-yn-1-yl)amino)-3,4-dioxocyclobut-1-en-1-yl)amino)-3-hydroxy-N,N-dimethylpicolinamide] | 527 nM | 114.18 min | 1110.44 min | 247.27 min
CC#C[C@H](Nc1c(Nc2ccnc(C(=O)N(C)C)c2O)c(=O)c1=O)C1(C)CCCC1 [compound 113, (R)-3-hydroxy-N, N-dimethyl-4-((2-((1-(1-methylcyclopentyl)but-2-yn-1-yl)amino)-3,4-dioxocyclobut-1-en-1-yl)amino)picolinamide] | 1480 nM | 124.51 min | 520.59 min | 577.09 min
CN(C)C(=O)c1nccc(Nc2c(N[C@@H](c3cccc(Cl)n3)C3(C)CCCC3)c(=O)c2=O)c1O [compound 003, (R)-4-((2-(((6-chloropyridin-2-yl)(1-methylcyclopentyl)methyl)amino)-3,4-dioxocyclobut-1-en-1-yl)amino)-3-hydroxy-N,N-dimethylpicolinamide] | 2210 nM | 93.67 min |  | 511.95 min
CN(C)C(=O)c1nccc(Nc2c(N[C@@H](c3nc(Cl)ccc3F)[C@@]3(C)CC(F)(F)CO3)c(=O)c2=O)c1O [068B, 4-((2-(((S)-(6-chloro-3-fluoropyridin-2-yl)((R)-4,4-difluoro-2-methyltetrahydrofuran-2-yl)methyl)amino)-3,4-dioxocyclobut-1-en-1-yl)amino)-3-hydroxy-N,N-dimethylpicolinamide] | 7630 nM | 570.62 min | 199.34 min | 995.19 min
